Laboratory results as given in article PMC2982748 (Arteriosclerosis, thrombosis, and vascular biology, 2010).

Biological target: P2Y12 (Homo sapiens, UniProt Q9H244)
Assay: β-arrestin recruitment
Type: cell-based

Chain of P2Y12 (Q9H244 whole entry): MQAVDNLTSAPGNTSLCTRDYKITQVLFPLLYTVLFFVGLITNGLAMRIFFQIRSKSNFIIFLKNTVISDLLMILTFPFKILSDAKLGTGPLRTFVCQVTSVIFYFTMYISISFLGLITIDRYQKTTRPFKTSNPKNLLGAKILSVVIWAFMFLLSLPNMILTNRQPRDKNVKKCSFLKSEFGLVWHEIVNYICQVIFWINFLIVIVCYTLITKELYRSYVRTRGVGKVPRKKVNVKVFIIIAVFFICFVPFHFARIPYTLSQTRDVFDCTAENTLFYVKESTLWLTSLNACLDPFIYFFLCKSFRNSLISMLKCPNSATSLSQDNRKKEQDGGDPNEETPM

SMILES | EC50 [nM]
Nc1ncnc2c1ncn2[C@@H]1O[C@H](COP(=O)(O)OP(=O)(O)O)[C@@H](O)[C@H]1O [ADP] | 5000
CCCCC/C=C\C\C=C/C=C/C=C/[C@@H](SC[C@H](N)C(=O)O)[C@@H](O)CCCC(=O)O [LTE4] | 0.013
